Laboratory results published in US20100330602A1, “Use of Soluble Galectin-3 (Gal-3) for Cancer Treatment” (Emory University, priority 2006, published 2010).
Peptide text beside a SMILES is read from it. * marks the point of attachment. Cbz = O=C(OCc1ccccc1)*; CH2F = FC*

What was measured:
[1] = test system: four different human glioma cell lines; assay: Recombinant Gal-3 added to culture medium, cell number; type: cell-based
Method: FIG. 6D. Purified recombinant human Gal-3 (Research Diagnostics Inc.) induces cytotoxicity in four glioma cell lines in a dose-response fashion (0, 5, 12.5, 25, 50, 100, 150 ng/ml) within 48 hrs.
A comparison of rGal3 with naturally secreted Gal3 evidences post-translational modifications in the naturally secreted one (data not shown).

[2] = test system: Gal-3 secretion in SF767 cells; assay: Western blot for secreted Gal-3 in SF767 glioma cells; type: cell-based, human; conditions: SF767, VP16 alone
Method: FIG. 2E. […] This effect is inhibited by p53 siRNA (lanes 5,6) but not control siRNA (lanes 3,4).
FIG. 23. […] This effect is inhibited by siRNAs for TSAP6 (lane 2), p53 (lane 3) and Fas (lane 4), but not control siRNA (lane 1).
Immunoblots were performed on cell lysates (lysed in 8 M urea, 4% SDS, in 10 mM Tris (pH 7.4)), from indicated cells. The conditioned media was precipitated by 15% TCA precipitation for 2 h at 4° C., washed twice with ice-cold acetone, and then resuspended in lysis buffer (8M urea, 4% SDS, 100 mM protease inhibitor cocktail (Roche, Germany)). Electrophoresis and blotting was performed using the Criterion system (BioRad; CA, USA) on. TCA precipitated proteins. Western blots were probed with antibodies for p53 (M7001-clone DO-7; DAKO; 1:500), p21 (MS-891-P1; Neomarkers, CA, USA; 1:250), Gal-3 (ab14364; Santa Cruz, Calif., USA; 1:500), HA (Roche; Germany, 1:500), caspase-3 (1:5000), α-TSP1 (MS-421-P1-Ab-4; NeoMarkers; CA, USA; 1:1000), and PARP (556494; BD Biosciences; CA, USA, 1:1000). Actin was used as a loading control (sc-1615, Santa Cruz Biotechnology; CA; 1:500). Blots were visualized by enhanced chemiluminescence (Pierce, IL, USA). For apoptosis analysis, cells were treated with either media containing secreted Gal-3 or with both secreted Gal-3 and 50 μm Z-VAD-FMK general caspase inhibitor (BD Biosciences; CA, USA). […]

SF767 cells = assay: Cell death in SF767 cells in response to VP16; type: cell-based, human; conditions: VP16 alone or with control siRNA
Excerpt: The levels of cell death in SF767 cells in response to VP16 treatment in the presence of either p53 or TSAP-6 specific siRNAs as well as in the presence of anti-Gal-3 antibody were further determined. […] This effect was inhibited in the presence of specific siRNAs for p53 (FIGS. 2E and H) or TSAP-6 as well as in the presence of anti-Gal-3 antibody. The inhibition mediated by TSAP6 siRNA was not complete, likely reflecting the incomplete TSAP6 inhibition by this siRNA (FIG. 2E).

[3] = test system: Caspase-3 and PARP cleavage in LN229 cells; assay: Western blot for caspase-3 and PARP cleavage after sGal-3 treatment; type: cell-based, human
Method: (§1) FIG. 4: Secreted Gal-3 induces apoptosis in tumor cells. FIG. 4A. Bright field pictures and quantification of LN229 glioma cells after 12 h treatment with either secreted Gal-3 alone or in combination with 50 μM Z-VAD general caspase inhibitor. Note inhibition of sGal-3-mediated cell death when cells are co-treated with Z-VAD. Results were quantified by crystal violet assay and experiments repeated three times in triplicate. Similar results were obtained with LN-Z308 cells (data not shown). FIG. 4B.
(§2) Immunoblots were performed on cell lysates (lysed in 8 M urea, 4% SDS, in 10 mM Tris (pH 7.4)), from indicated cells. The conditioned media was precipitated by 15% TCA precipitation for 2 h at 4° C., washed twice with ice-cold acetone, and then resuspended in lysis buffer (8M urea, 4% SDS, 100 mM protease inhibitor cocktail (Roche, Germany)). Electrophoresis and blotting was performed using the Criterion system (BioRad; CA, USA) on. TCA precipitated proteins. […]
(§3) LN229 and LN-Z308 glioma cells were treated with either extracellular Gal-3 alone, or in combination with the Z-VAD general caspase inhibitor and analyzed the cells for apoptotic features.

[4] = test system: human foreskin fibroblasts (HFF); assay: Crystal violet assay, CM of sGal-3 transfected 293 cells, normal cells; type: cell-based
Method: (§4) 293 cells were transfected using GenePORTER reagent (Gene Therapy Systems; CA, USA) with the pUMVC7-sGal-3 plasmid and switched over to serum free media 16 h later. The CM was collected after 48 h, floating cells removed through centrifugation at 1000 g, and filtrated through a 0.8 μm filter (Corning; NY, USA). Cells were plated at 5,000 cells per well in 24-well plates and treated with serial dilutions of CM from either pCMV-LacZ or pUMVC7-sGal-3 transfected 293 cells. Relative cell number compared to serum free media control was quantified in triplicate 24 h and 48 h post treatment using either an MTT kit (Roche; IN, USA) or by crystal violet assay by acquiring absorbance at 575 nm using a spectrophotometer.
(§5) To examine whether the cytotoxic effect of Gal-3 was limited to glioma or whether it represents a more general anti-cancer property, two breast cancer (MD468 and MCF7), two lung cancer (A549 and H1289) and two prostate cancer (LnCaP and PC3) cell lines were tested using the same assay and found all of them to be sensitive to sGal-3 presence in the medium (FIG. 6B).

[5] = test system: human dermal microvascular endothelial cells (HDMEC); assay: as above; type: cell-based
Method: as §4, §5

[6] = test system: LN229-L16-derived dox-inducible sGal-3 clones; assay: Dox-induced sGal-3 expression in cell culture; type: cell-based, human; conditions: within 3-5 days in cell culture
Method: Five μg of the plasmid DNA and 5 μl of GenePORTER reagent (Gene Therapy Systems; San Diego, Calif.) were used for each transfection. One μg of pcDNA3.1 containing the geneticin (G418)-resistance cassette was co-transfected at a […], when generating stable clones. Tetracycline-inducible sGal-3 transfected clones were generated in L16 glioma cells (Tet-on clone derived from LN229) by selecting for G418 resistance (1,200 μg/ml). The individual clones were assessed for expression of sGal-3 after 48 h dox induction by western blot analysis. For TSAP6 siRNA, HEK293 cells were transfected with either pcDNA3.1 vectors containing TSAP6 and Galectin-3 alone or in combination with […] or TSAP6 (pHYDE) siRNA (Santa Cruz, Calif., USA) using GenePORTER reagent (Gene Therapy Systems; CA, USA). Cells were allowed to recover overnight in 10% FBS containing DMEM before switching them to serum free media. Cells and CM were collected after 24 hours in serum free media.
To test this concept, dox-inducible sGal-3 clones were generated with variable expression levels in LN229-L16 cells (rtTA expressing) (see materials and methods) (FIG. 7A).

[7] = test system: tumors of sGal-3 expressing tet-inducible clones #12 and #21; assay: In vivo mouse tumorigenicity assay (subcutaneous xenograft); parameters: species or system athymic nude mice
Method: FIG. 7C. sGal-3 inhibits tumor growth. Six-week old female athymic nude mice (NCI) were injected subcutaneously with 5×10^6 cells of clone #12 and divided into two groups (n=8). Similar results were obtained with clone #21. One group was left untreated while the second group was given 2 mg/ml Dox in drinking water containing 5% sucrose to induce expression of sGal-3 one week after tumor cell implantation until termination of the experiment. The length (a) and width (b) of the tumors were measured weekly and tumor volume was calculated in mm^3=(a×b^2)/2.
Six-week old female athymic nude mice (NCI) (n=8/group) were injected subcutaneously with 5×10^6 cells of the indicated cell lines. 2 mg/ml Dox was delivered orally in drinking water containing 5% sucrose to induce expression and secretion of Gal-3 one week post injection of tumor cells until termination of the experiment. The length (a) and width (b) of the tumors were measured weekly and tumor volume was calculated in mm^3=(a×b^2)/2.
To test directly the effect of sGal-3 on tumor growth in vivo, a nu/nu mouse xenograft model system was used. Cells (5×10^6) from the sGal-3 expressing tet-inducible clones #12 and #21 were injected subcutaneously in the mice and sGal-3 expression was induced one week post tumor cell implantation in half of the injected mice by feeding dox in the drinking water for 12 weeks (9 mice/group). Only 4 of the 18 tumors (clone #12) in the sGal-3 expressing group developed while 14/18 tumors grew in the control group. […] Immunohistochemistry for Gal-3 expression in excised tumors from mice treated with doxycycline confirmed that Gal-3 was expressed (FIG. 7D).

LN229 glioma cells = assay: Crystal violet assay, CM of sGal-3 transfected 293 cells; type: cell-based, human; conditions: CM of transfected 293 cells as source of sGal-3, after 48 h
Method: as §4
(§6) After cleavage of the secretion signal, the sGal-3 amino acid sequence is identical to the endogenous secretion product. It is nevertheless possible that sGal3 will have different post-translational modifications that may vary between the exosome-mediated secretory pathway and the classical secretion pathway. To verify the functionality of the construct, the construct was transfected in 293-CLH cells where it mediated a robust increase in the expression and secretion of Gal-3 without intracellular accumulation (FIG. 6A). Using the CM of transfected 293 cells as a source of sGal-3, its effect on the growth of SF767, LN-Z308 and LN229 glioma cells was determined using a crystal violet assay. […] Cells incubated with serum free medium or CM from 293 cells transfected with control pCMV-lacZ plasmid were unaffected (FIG. 6B).

LN-Z308 glioma cells = assay: as above; type: cell-based, human; conditions: CM of transfected 293 cells as source of sGal-3, after 48 h
Method: as §4, §6

SF767 glioma cells = assay: as above; type: cell-based, human; conditions: CM of transfected 293 cells as source of sGal-3, after 48 h
Method: as §4, §6

[8] = test system: LN229 and LN-Z308 glioma cells; assay: Apoptotic features after sGal-3 treatment with or without Z-VAD; type: cell-based, human
Method: as §1, §2, §3

[9] = test system: MCF7 breast cancer cell line; assay: Crystal violet assay, CM of sGal-3 transfected 293 cells; type: cell-based
Method: as §4, §5

[10] = test system: A549 lung cancer cell line; assay: as above; type: cell-based
Method: as §4, §5

[11] = test system: H1289 lung cancer cell line; assay: as above; type: cell-based
Method: as §4, §5

[12] = test system: MD468 breast cancer cell line; assay: as above; type: cell-based
Method: as §4, §5

[13] = test system: PC3 prostate cancer cell line; assay: as above; type: cell-based
Method: as §4, §5

[14] = test system: LnCaP prostate cancer cell line; assay: as above; type: cell-based
Method: as §4, §5

rGal-3: Purified recombinant human Gal-3 (Research Diagnostics Inc.)
potency compared with naturally secreted Gal-3 [1]: less than that found naturally secreted by human cells | cell number ([1]; increasing amounts (0, 5, 12.5, 25, 50, 100, 150 ng/ml) over 48 h): dose-dependent decrease in cell number

COc1cc([C@@H]2c3cc4c(cc3[C@@H](O[C@@H]3O[C@@H]5CO[C@@H](C)O[C@H]5[C@H](O)[C@H]3O)[C@H]3COC(=O)[C@H]23)OCO4)cc(OC)c1O [Etoposide, etoposide]
secretion of Gal-3 in the media [2]: enhanced secretion of Gal-3 | levels of cell death (SF767 cells): marked levels of apoptosis

sGal-3: constitutively secreted soluble Gal-3; Gal-3 cDNA fused to classical secretion signal peptide from the plasminogen activator gene, produced in 293 cells
Caspase-3 and PARP cleavage ([3]; within 12 h of sGal-3 treatment): Caspase-3 and PARP cleavage | viability in response to secreted Gal-3 in the media [4]: did not show decreased viability | viability in response to secreted Gal-3 in the media [5]: did not show decreased viability | cell death upon induction of sGal-3 [6]: cell death in all three clones | average tumor volume at termination versus controls ([7]; clone #12, p<0.02): over six-fold smaller | tumors developed ([7]; clone #12, sGal-3 induced by dox in drinking water for 12 weeks, control 14/18): 4 of the 18 | tumor size at termination, fold smaller than control group ([7]; clone #21, on average): 4 fold | tumors grew ([7]; clone #21, sGal-3 expression, control 16/18): 6 of 18 | decrease in cell number (LN229 glioma cells): greater than 75% | decrease in cell number (LN-Z308 glioma cells): greater than 75% | decrease in cell number (SF767 glioma cells): greater than 75% | apoptotic features ([8]; sGal-3 alone, as early as 12 h post treatment): membrane blebbing, and cell death | sensitivity to sGal-3 presence in the medium [9]: sensitive | sensitivity to sGal-3 presence in the medium [10]: sensitive | sensitivity to sGal-3 presence in the medium [11]: sensitive | sensitivity to sGal-3 presence in the medium [12]: sensitive | sensitivity to sGal-3 presence in the medium [13]: sensitive | sensitivity to sGal-3 presence in the medium [14]: sensitive

COC(=O)C[C@H](NC(=O)[C@H](C)NC(=O)[C@@H](NC(=O)OCc1ccccc1)C(C)C)C(=O)CF [Z-VAD, Z-VAD-FMK, reference compound] (Cbz-Val-Ala-Asp(OMe)-CH2F)
effect on sGal-3-induced Caspase-3 and PARP cleavage ([3]; co-treatment with 50 μM Z-VAD): neutralized | effect on sGal-3-mediated cell death ([8]; co-treatment with 50 μM Z-VAD): inhibited
